Patent US20180250393A1, “MANIPULATION OF T CELL AND MAST CELL ACTIVATION BY PIK3IP1” (UNIVERSITY OF PITTSBURGH-OF THE COMMONWEALTH SYSTEM OF …, priority 2017, published 2018)

System: Naïve T cells from WT and KO mice
Test: Th1 differentiation assay with PI3K/Akt pathway inhibitors, IFN-γ expression by flow cytometry
Assay type: cell-based, mouse
Settings: Th1 conditions, all concentrations
Experimental: (A) Naïve T cells from WT and KO mice were cultured under Th1 conditions for three days in the presence of PI3K inhibitors (Akti, LY294002 and IC-87114), re-stimulated with PMA/Ionomycin and analyzed for IFNγ and CD25 expression. (B) Quantitation of A. p values were calculated using two-way ANOVA with Sidak's multiple comparisons test. p values are represented with the following symbols: *0.01-0.05, **0.001-0.01, ***<0.001. Data are representative of more than three experiments.
CD4 T cells from spleens and lymph nodes of naïve mice were purified by magnetic separation using the Miltenyi Biotec naïve CD4 T cell isolation kit (Cat#130-104-453). The purity of the final cell population was >90%. […] Cells were then harvested and analyzed by flow cytometry.
In order to determine whether the difference in Th1 polarization was actually due to the absence of PI3K modulation by TrIP, the Th1 differentiation assay was performed on WT and KO T cells with the addition of moderate concentrations of PI3K/Akt pathway inhibitors. […] At the end of culture, cells were re-stimulated with PMA/Ionomycin and evaluated by flow cytometry for IFN-γ expression. […]

## Cc1ccccc1-n1c(Cn2cnc3c(N)ncnc32)nc2cccc(C)c2c1=O [IC-87114]
  relative potency among the three inhibitors for IFN-γ production: most potent inhibitor at all concentrations
